{"source": "paper PMC10388363", "about": "“Novel 1,4-Dihydropyridines as Specific Binders and Activators of SIRT3 Impair Cell Viability and Clonogenicity and Downregulate Hypoxia-Induced Targets in Cancer Cells” (Journal of Medicinal Chemistry, 2023)", "key": {"[1]": {"target": "T1, human SIRT3 (Homo sapiens, UniProt Q9NTG7)", "T1 construct": "pET151D/Topo (Sirt3-114-380 and Sirt5-34-302); His tag (N, cleaved yes); made in house; host or cells: Escherichia coli", "T1 sequence (Q9NTG7 114-380)": "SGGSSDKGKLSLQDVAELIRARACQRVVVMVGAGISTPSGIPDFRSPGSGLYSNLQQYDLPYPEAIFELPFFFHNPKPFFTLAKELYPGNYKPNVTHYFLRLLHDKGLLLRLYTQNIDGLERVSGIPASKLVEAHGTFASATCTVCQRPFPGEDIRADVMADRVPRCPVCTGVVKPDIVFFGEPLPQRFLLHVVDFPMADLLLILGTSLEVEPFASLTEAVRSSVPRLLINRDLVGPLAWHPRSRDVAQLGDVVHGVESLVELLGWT", "assay": "PncA/GDH-coupled deacylation assay, SIRT3 activation (ACS2-acK642 substrate)", "type": "biochemical", "conditions": "100 μM, 387% vs 269%", "method": "To avoid artifacts and other non-specific effects, instead of the “Fluor-de-Lys” (FdL) substrate, we used a PncA/GDH-coupled deacylation assay by measuring the NADPH oxidation to NADP^+ that relies on isoform-specific non-modified physiological acetyl or succinyl substrates [p53-acK381 for SIRT1, α-tubulin-[…] for SIRT2, acetyl-CoA synthetase 2 (ACS2)-acK642 for SIRT3, and CPS1-succK537 for SIRT5].[59] The assays were carried out using the 1,4-DHP derivatives 2a–n and 3a–d against SIRT3, including the prototype compounds 2 and 3 as positive controls.\nN-terminally his-tagged human sirtuins were expressed in Escherichia coli using constructs in pET15b (Sirt1) or pET151D/Topo (Sirt3-114-380 and Sirt5-34-302).[4],[59],[61] Sirt2-43-356 was expressed from a modified pET19b containing a TEV protease cleavage site and an N-terminal SUMO-tag.[59],[79] Proteins were expressed and purified as described elsewhere.[59],[61],[79]−[81] In brief, proteins were expressed in E. coli, crude extracts were cleared by centrifugation, and the proteins were affinity purified using NiNTA beads.\nSirtuin deacylation activities were analyzed by using a coupled enzymatic assay as described in.[59],[82] […]"}, "[2]": {"system": "CAL-62 cells", "assay": "Clonogenic assay, CAL-62", "type": "cell-based", "conditions": "Homo sapiens; CAL-62, 48 h, normoxia; read-out: IC50 against colonies formation", "method": "(§1) Afterward, the selected compounds 3a–d were assayed at 50 μM for 24 and 48 h in CAL-62 and MDA-MB-231 cells to assess their ability to impair the cell viability and colony formation in either normoxia or hypoxia-induced condition, the latter obtained by adding a 200 μM cobalt chloride solution, as described in previous reports[69] (Figure 8). Most cancer cells, mainly solid types, are known to have an altered metabolism due to hypoxia, a non-physiological level of oxygen tension, which contributes to therapy resistance by causing cellular quiescence.[70] Moreover, hypoxic cancer cells can induce several factors that lead to cell proliferation and colony formation.[71]\n(§2) Cells were seeded in a 100 mm dish and, once at 80–90% confluence, treated as described in the Results and Discussion section. After 24 and 48 h, cells were collected, counted, and 500 cells plated in a 100 mm dish. After about 7 days for CAL62 and 10 days for MDA-MB-231, plates were washed with phosphate-buffered saline solution (PBS); (Merck; 79382), and clones were fixed with 4% formaldehyde solution in PBS (Merck; F8775) at room temperature for 15 min. After that, the dishes were washed with PBS, and clones stained for 5 min with 0.5% crystal violet (Merck; C0775). Finally, the plates were washed with distilled water and air-dried. After scanning each individual dish, the colonies were counted the following day."}, "[3]": {"system": "MDA-MB-231 cells", "assay": "Clonogenic assay, MDA-MB-231", "type": "cell-based, human", "conditions": "for reduction of clonogenicity: MDA-MB-231, 50 μM, 48 h", "method": "as §1, §2"}}, "note": "pIC50: −log10 of the molar value."}
{"compound": "CCOC(=O)C1=CN(C(=O)c2ccc(OC)c(OC)c2)C=C(C(=O)OCC)C1c1ccccc1", "note": "[Compound 3c, Diethyl 1-(3,4-dimethoxybenzoyl)-4-phenyl-1,4-dihydropyridine-3,5-dicarboxylate]", "values": [{"measurement": "SIRT3 activation potency relative to reference 3", "setting": "[1]", "value": 1.4, "unit": "fold"}]}
{"compound": "CCOC(=O)C1=CN(C(=O)c2cc(OC)cc(OC)c2)C=C(C(=O)OCC)C1c1ccccc1", "note": "[Compound 3d, Diethyl 1-(3,5-dimethoxybenzoyl)-4-phenyl-1,4-dihydropyridine-3,5-dicarboxylate]", "values": [{"measurement": "pIC50", "setting": "[2]", "value": "~5.60"}, {"measurement": "pIC50", "setting": "[3]; Homo sapiens, MDA-MB-231, 48 h, normoxia, read-out: IC50 against colonies formation", "value": "~5.66"}, {"measurement": "reduction of clonogenicity", "setting": "[3]; hypoxia", "value": 95, "unit": "%"}, {"measurement": "reduction of clonogenicity", "setting": "[3]; normoxia", "value": 86, "unit": "%"}]}
